The numbers were not newly measured in US8067364B2, “Deer antler extract for promoting angiogenesis” (Velvet Antler Research New Zealand Limited (VARNZ), priority 2003, dated 2011), which cites them from elsewhere.

No end group written: not given here.

Data set [1] concerns wounds. The note with it: delivered by gene therapy, local sustained delivery; literature.
The test system of data set [2] is endothelial cells, wounds. To be noted: literature.

For the substance VEGF, in data set [1], the “angiogenesis and wound healing” value is “cause angiogenesis and enhanced wound healing”.

Take “Thymosin α1: peptide of the Thymosin family, potential wound healing agent (Ac-SDAAVDTSSEITTKDLKEKKEVVEEAEN; ends and bridges not checked; UniProt P06454 2-29, looked up)”: in data set [2], the “endothelial cell migration, angiogenesis, and wound healing” value was “stimulates endothelial cell migration, angiogenesis, and wound healing”.
